Measurements taken from US20220047589A1, “PDE9 INHIBITORS FOR TREATING THALASSEMIA” (Imara Inc., priority 2019, published 2022).
Entries after “also recorded” stand apart in the source; their conditions may differ.

Experiments:
[1] = Effect of food on adverse event profile on once-daily administration to patients; type: in vivo; settings: once a day with food
Procedure: In some embodiments, Compound 1, or a pharmaceutically acceptable salt, solvate, or polymorph thereof is administered to a patient, wherein Compound 1, or a pharmaceutically acceptable salt, solvate, or polymorph thereof is administered once a day with food. […] The incidence and severity of the side effects, such as nausea, emesis and headache, can be reduced when Compound 1, or a pharmaceutically acceptable salt, solvate, or polymorph thereof is taken with food.

Hbb^th1 mice [2] = assay: Erythroblast differentiation (RBC maturation) in spleen cells of treated Hbb^th1 mice by flow cytometry; type: in vivo, mouse; settings: 30 or 60 mg/kg once daily by oral gavage
Procedure: (§1) This model was used to evaluate the effect of Compound 1 to treat thalassemia.
(§2) Hbb^th1 mice were given Compound 1 dissolved in 10:90 DMSO:corn oil once daily, by oral gavage, at either a high dose (60 mg/kg) or a low dose (30 mg/kg). A normal (C57BL/6) mouse was included as a control in the study to establish baselines along with a Hbb^th1 vehicle mouse not given Compound 1. Animals were observed once daily for morbidity and mortality. Mice were not allowed to recover from anesthesia and were killed by cervical dislocation while still anesthetized. Necropsy was limited to removal and weighing of the spleen for further analysis.
RBC maturation is a key mechanistic component in reducing pathology of thalassemia. Therefore, immature RBC (Ery.B: late basophilic and polychromatic) percentage, mature RBC (Ery.C: ortochromatic and reticulocytes) percentage, and maturation index were also measured. […] Cells were further analyzed by flow cytometry (Gallios, Beckman) using FlowJo software v.10.1 (FlowJo, LLC). Results were expressed as the percentage of Ery.B (Live-Dead^neg, Ter-119^pos, CD71^pos, FSC^low) or Ery.C (Live-Dead^neg, Ter-119^pos, CD71^neg, FSC^low) populations. Maturation index was calculated as Ery.B/Ery.C ratio.

Hbb^th1 mice [3] = assay: In vivo study in Hbb^th1 thalassemia mice: blood Hb and RBC levels; set-up: species or system mouse
Procedure: as §1, §2
Blood was collected on day 30, from the retroorbital sinus of all mice, while mice were under isoflurane anesthesia, using heparin capillaries and EDTA-coated tubes. Parameters measured were: Hb levels and RBC levels.

In the case of `C[C@@H]1CN(Cc2ncccn2)C[C@H]1c1cn2c(C3CCOCC3)ncc2c(=O)[nH]1` [Compound 1, 6-[(3S,4S)-4-methyl-1-(pyrimidin-2-ylmethyl)pyrrolidin-3-yl]-3-tetrahydropyran-4-yl-7H-imidazo[1,5-a]pyrazin-8-one], the “adverse event profile (nausea, emesis, headache) when taken with food” value [1] is reported as “food reduce the adverse event profile dramatically”, the “immature RBC (Ery.B) percentage” value (Hbb^th1 mice [2]; FIG. 2A) is reported as “reduces immature RBC cell percentages; also recorded: reduces immature RBC levels” and the “mature RBC (Ery.C) percentage” value (Hbb^th1 mice [2]; FIG. 2B) is reported as “increases mature RBC cell percentages; also recorded: increases mature RBC levels”. For the same compound, the “Hb levels (total Hb amount)” value (Hbb^th1 mice [3]; 30 or 60 mg/kg once daily by oral gavage, blood on day 30, FIG. 1A) was “increase Hb levels; also recorded: increases the total Hb amount”, the “RBC levels (RBC amount)” value (Hbb^th1 mice [3]; 30 or 60 mg/kg once daily by oral gavage, blood on day 30, FIG. 1B) was “increased RBC levels; also recorded: increases” and the “increase of total Hb vs. control groups” value (Hbb^th1 mice [3]; high dose (60 mg/kg), once daily by oral gavage, blood collected on day 30) was 1.3 g/dL.
